Assay results as given in patent publication US20220016241A1, “COMPOSITIONS AND METHODS FOR REDUCING ANTIGEN-SPECIFIC IMMUNOGENICITY” (The Research Foundation for The State University of New York, priority 2013, published 2022).

Tests used:
anti-Ova antibody titers = experiment: Effect of OPLS on immunogenicity of ovalbumin after SC administration; type: in vivo, SW mice; details: 5 mg OPLS with 1 μg Ova s.c.
Procedure: Methods: 14 SW mice between 6 and 8 weeks of age were divided into 2 groups: group one received 1 μg OVA SC in the abdominal region. Group two received 1 μg OVA/5 mg OPLS SC in the abdominal region. This treatment was given one day 1, 8, 10 and 12. Three days after the last injection the animals were sacrificed. Blood was centrifuged at 7500 rpm for 5 min at 4° C. Plasma was then removed and stored at -80° C. until analysis Titers values were obtained using an anti-Ova IgG […] analysis kit as per the manufacturers instruction (alphadiagnostic international). Statistics was done on the arithmetic mean of the log transformed data, graphs are reported as geometric means. Non-responders were given the value of the plate specific factor for uniformity.

anti-RXT antibody titers = experiment: Effect of OPLS on rituximab immunogenicity; type: in vivo, SW mice; details: OPLS 5 mg vs 0.4 mg with 1 μg RXT s.c., dose dependent
Procedure: Materials and Methods: 30 SW mice between 6 and 8 weeks of age were divided into 3 groups: group one received 1 ug RXT SC in the abdominal region. Group two received 1 ug RXT/0.4 mg OPLS SC in the abdominal region and group 3 received 1 μg RXT/5 mg OPLS sc in the abdominal region. This treatment was given one day 1, 8, 10 and 12. Three days after the last injection the animals were sacrificed. Blood was centrifuged at 7500 rpm for 5 min at 4 degrees Celsius. Plasma was then removed and stored at −80 degrees Celsius until analysis Total titers were determined by classical standard ELISA. Briefly, Nunc-Maxisorb 96-well plates were coated overnight at 4° C. with 50 μl/well of 2.5 μg/ml RXT. Plates were then washed and blocked with 1% bovine serum albumin (blocking buffer). 50 μl/well of various dilutions of the sample were added to the plate and incubated at room temperature for 2 h. Plasma samples from animals exposes to a sham treatment (buffer only) served as controls. The plates were then washed and incubated with 50 μl of goat anti-mouse FC-specific anti-body-HRP conjugate at a 1:50000 dilution in blocking buffer at room temperature for 1 h. Color was developed for 20 min with 100 μl of TMB solution. 100 μl of 2 N H2SO4 was used to stop the reaction. Optical density at […] was measured using a plate reader. Non-responders were given the value of the plate specific factor for uniformity. […]

anti-KLH IgG titer = experiment: 28-day repeat dose TDAR study, anti-KLH IgG; type: in vivo, CD-1 mice; details: 28 daily doses, any OPLS dose
Text: FIG. 20. Anti-KLH IgG titer levels obtained from a short term, repeat dose (28 daily doses) TDAR study conducted in CD-1 mice.

anti-IgG antibody titers = experiment: Effect of OPLS on human IgG immunogenicity; type: in vivo, mice; details: 0.4 mg OPLS with 1 μg human IgG s.c., days 1, 8, 10, 12
Procedure: Materials and Methods: 8 animals were used for this pilot study, 4 animals were injected with Human-IgG (Sigma) alone (1 μg) or with Human IgG plus OPLS (1 μg human IgG plus 0.4 mg OPLS). The study was done with 4 injections over 2 weeks period as follows: day 1, day 8, day 10 and day 12 followed by a 3 days washout period. ELISA was done to measure total titers. Briefly, Nunc-Maxisorb 96-well plates were coated overnight at 4° C. with 50 μl/well of 2.5 μg/ml Human IgG. Plates were then washed and blocked with 1% bovine serum albumin (blocking buffer). 50 μl/well of various dilutions of the sample were added to the plate and incubated at room temperature for 2 h. Plasma samples from animals exposes to a sham treatment (buffer only) served as controls. The plates were then washed and incubated with 50 μl of goat anti-mouse anti-body-HRP conjugate at a 1:50000 dilution in blocking buffer at room temperature for 1 h. Color was developed for 20 min with 100 μl of TMB solution. 100 μl of 2 N H2SO4 was used to stop the reaction. Optical density at […] was measured using a plate reader. Non-responders were given the value of the plate specific factor for uniformity.
In this pilot study, animals were injected with Human-IgG (Sigma) alone (1 μg) or with OPLS […]. […]

GAA = target: T1, GAA (Homo sapiens, UniProt P10253); experiment: Binding of OPLS to GAA by fluorescence spectroscopy; details: spectroscopic titration
T1 construct: Full length recombinant rhGAA was produced in Human Kidney Embryo Cells for our use by Creative Biomart; purchased Creative Biomart (Shirley, N.Y.); host or cells: Human Kidney Embryo Cells
Procedure: The binding of OPLS to several therapeutic proteins was evaluated using fluorescence spectroscopy (FIG. 2).

N[C@@H](COP(=O)(O)O)C(=O)O [OPLS, O-Phospho-L-Serine]
Anti-Ova antibody titers vs Ova alone (anti-Ova antibody titers): lower | Anti-RXT antibody titers vs RXT alone (anti-RXT antibody titers): lower | Anti-KLH IgG titer levels vs vehicle (anti-KLH IgG titer): No statistical significance | Anti-IgG antibody titers vs IgG alone (anti-IgG antibody titers): lower | Binding affinity of GAA for OPLS (GAA): lowest affinity
